Structures are written as SMILES. Residues, ends and D or L forms follow the SMILES beside them.

This assay deals with T1, angiotensin converting enzyme (ACE) (Oryctolagus cuniculus, UniProt P12822).
T1 sequence (P12822 34-1310): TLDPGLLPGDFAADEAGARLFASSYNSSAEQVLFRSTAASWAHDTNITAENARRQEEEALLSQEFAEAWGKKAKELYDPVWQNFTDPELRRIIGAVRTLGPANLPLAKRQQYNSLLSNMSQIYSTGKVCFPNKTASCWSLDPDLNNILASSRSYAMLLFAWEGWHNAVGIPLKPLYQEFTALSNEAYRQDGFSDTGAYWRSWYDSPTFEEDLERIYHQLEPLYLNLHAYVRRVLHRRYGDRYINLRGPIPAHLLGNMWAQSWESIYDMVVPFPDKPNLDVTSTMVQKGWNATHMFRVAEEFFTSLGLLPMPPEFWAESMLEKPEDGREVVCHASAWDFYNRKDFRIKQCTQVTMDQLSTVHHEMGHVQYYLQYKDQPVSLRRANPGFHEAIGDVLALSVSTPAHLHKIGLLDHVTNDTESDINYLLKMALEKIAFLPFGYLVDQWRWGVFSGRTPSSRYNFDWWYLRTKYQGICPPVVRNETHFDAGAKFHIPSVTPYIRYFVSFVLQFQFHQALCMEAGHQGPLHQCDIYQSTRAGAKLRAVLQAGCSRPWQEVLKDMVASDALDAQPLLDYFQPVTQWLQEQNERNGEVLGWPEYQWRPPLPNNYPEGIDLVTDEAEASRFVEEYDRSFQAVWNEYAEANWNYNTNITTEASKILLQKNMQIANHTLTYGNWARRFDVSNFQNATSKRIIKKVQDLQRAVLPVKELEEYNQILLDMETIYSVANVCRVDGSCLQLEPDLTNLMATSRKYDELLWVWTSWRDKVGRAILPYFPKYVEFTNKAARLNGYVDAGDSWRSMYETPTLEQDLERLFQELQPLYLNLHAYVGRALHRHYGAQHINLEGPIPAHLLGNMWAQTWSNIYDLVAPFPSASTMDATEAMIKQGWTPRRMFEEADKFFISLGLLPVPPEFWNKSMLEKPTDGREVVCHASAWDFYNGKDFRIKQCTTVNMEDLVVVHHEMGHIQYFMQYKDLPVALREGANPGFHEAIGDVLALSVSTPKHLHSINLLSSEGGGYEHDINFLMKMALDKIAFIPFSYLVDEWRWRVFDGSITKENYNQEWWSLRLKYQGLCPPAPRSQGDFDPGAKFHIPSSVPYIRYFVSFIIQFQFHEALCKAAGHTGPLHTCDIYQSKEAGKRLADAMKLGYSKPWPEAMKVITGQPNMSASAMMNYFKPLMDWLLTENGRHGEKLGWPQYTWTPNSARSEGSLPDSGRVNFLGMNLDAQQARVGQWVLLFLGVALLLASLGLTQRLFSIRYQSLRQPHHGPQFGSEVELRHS
Put plainly: ACE inhibiting activity (method of Cushman and Cheung, Hip-His-Leu substrate). To be noted: read-out: IC50 (μM), ACE inhibiting activity of synthesized peptides; chemically synthesized peptides; measured in the same way as in Example 1.
Protocol: 0.2 ml of hippuryl histidyl leucine (Hip-His-Leu, manufactured by SIGMA CHEMICAL CO.), adjusted to 5 mM with a 0.1M boric acid buffer containing 0.3M NaCl, pH 8.3, and 0.02 ml of an aqueous enzyme solution (ACE, 0.1 u/ml, manufactured by SIGMA CHEMICAL CO.) were added in this order as a substrate to the contents of each test tube, and reaction was carried out at 37° C. for 30 minutes. 0.25 ml of 1N hydrochloric acid was subsequently added to the contents of each test tube. After termination of the reaction, 1.7 ml of ethyl acetate was added to the contents of each tube, and agitation was continued for 20 seconds. After centrifugal separation at 3000 rpm for 10 minutes, and recovery of 1.4 ml of an ethyl acetate layer, the solvent was removed by heating at 120° for 40 minutes. After removing the solvent and adding 1 ml of distilled water, the absorption at 228 nm of the extracted hippuric acid was measured and adopted as the ACE inhibiting activity. The inhibiting ratio was calculated by the following equation:
Inhibiting Percentage=[(A-B)/(A-C)]×100(%)
By IC50 is commonly meant the point on the concentration scale where inhibition reaches its midpoint. Regarding `CC(C)C[C@H](NC(=O)[C@@H](N)Cc1ccccc1)C(=O)N[C@H](C(=O)N1CCC[C@H]1C(=O)N1CCC[C@H]1C(=O)O)C(C)C` [Phe--Leu--Val--Pro--Pro, Phe-Leu-Val-Pro-Pro] (H-FLVPP-OH), the concentration for half-maximal inhibition (IC50) worked out at 12 µM.

As for `CC(C)[C@H](N)C(=O)N[C@H](C(=O)N[C@H](C(=O)N1CCC[C@H]1C(=O)N1CCC[C@H]1C(=O)O)C(C)C)C(C)C` [Val--Val--Val--Pro--Pro, Val-Val-Val-Pro-Pro] (H-VVVPP-OH), the concentration for half-maximal inhibition (IC50) was determined as 873 µM. Turning to `CC(C)[C@H](NC(=O)[C@@H]1CCCN1)C(=O)N1CCC[C@H]1C(=O)N1CCC[C@H]1C(=O)O` [Pro--Val--Pro--Pro, Pro-Val-Pro-Pro] (H-PVPP-OH), the IC50 stood at 181 µM.

On to `CC(C)[C@H](NC(=O)[C@@H]1CCCN1)C(=O)N[C@H](C(=O)N[C@H](C(=O)N1CCC[C@H]1C(=O)N1CCC[C@H]1C(=O)O)C(C)C)C(C)C` [Pro--Val--Val--Val--Pro--Pro, Pro-Val-Val-Val-Pro-Pro] (H-PVVVPP-OH), for which the IC50 was 117 µM.

In the case of `CC(C)[C@H](NC(=O)[C@@H]1CCCN1C(=O)[C@H](C)N)C(=O)N1CCC[C@H]1C(=O)N1CCC[C@H]1C(=O)O` [Ala--Pro--Val--Pro--Pro, Ala-Pro-Val-Pro-Pro] (H-APVPP-OH), the IC50 stood at 627 µM. Regarding `CC(C)C[C@H](N)C(=O)N[C@H](C(=O)N[C@@H](CCC(N)=O)C(=O)N[C@H](C(=O)N1CCC[C@H]1C(=O)N[C@H](C(=O)N[C@H](C(=O)N[C@H](C(=O)N1CCC[C@H]1C(=O)N1CCC[C@H]1C(=O)O)C(C)C)C(C)C)C(C)C)[C@@H](C)O)[C@@H](C)O` (H-LTQTPVVVPP-OH), the IC50 was 160 µM.

In the case of `CC(C)[C@H](N)C(=O)N[C@H](C(=O)N1CCC[C@H]1C(=O)N1CCC[C@H]1C(=O)O)C(C)C` [Val--Val--Pro--Pro, Val-Val-Pro-Pro] (H-VVPP-OH), the IC50 was determined as 285 µM.

For `CC(C)C[C@H](N)C(=O)N[C@H](C(=O)N1CCC[C@H]1C(=O)N1CCC[C@H]1C(=O)O)C(C)C` [Leu--Val--Pro--Pro, Leu-Val-Pro-Pro] (H-LVPP-OH), the IC50 is 125 µM.
